Among the data in US10072001B2, “Tank-binding kinase inhibitor compounds” (Gilead Sciences, Inc., priority 2014, dated 2018) are IC50 values, retold here.

pIC50: −log10 of the molar value. Bounds are passed on as bounds.

For assay [1], the target named is TBK1 (Homo sapiens (Human), UniProt Q9UHD2). Briefly: TR-FRET kinase assay, TBK1. The conditions noted are these: read-out: TBK1-IC50; full length recombinant TBK1 2.5 nM, 2x Km ATP, 1 μM peptide, 240 min at 25° C.; geometric mean of minimum four determinations. On the technique in general: TR-FRET usually uses a lanthanide donor and a delayed reading to cut background.
Sequence of TBK1 (Q9UHD2 whole entry): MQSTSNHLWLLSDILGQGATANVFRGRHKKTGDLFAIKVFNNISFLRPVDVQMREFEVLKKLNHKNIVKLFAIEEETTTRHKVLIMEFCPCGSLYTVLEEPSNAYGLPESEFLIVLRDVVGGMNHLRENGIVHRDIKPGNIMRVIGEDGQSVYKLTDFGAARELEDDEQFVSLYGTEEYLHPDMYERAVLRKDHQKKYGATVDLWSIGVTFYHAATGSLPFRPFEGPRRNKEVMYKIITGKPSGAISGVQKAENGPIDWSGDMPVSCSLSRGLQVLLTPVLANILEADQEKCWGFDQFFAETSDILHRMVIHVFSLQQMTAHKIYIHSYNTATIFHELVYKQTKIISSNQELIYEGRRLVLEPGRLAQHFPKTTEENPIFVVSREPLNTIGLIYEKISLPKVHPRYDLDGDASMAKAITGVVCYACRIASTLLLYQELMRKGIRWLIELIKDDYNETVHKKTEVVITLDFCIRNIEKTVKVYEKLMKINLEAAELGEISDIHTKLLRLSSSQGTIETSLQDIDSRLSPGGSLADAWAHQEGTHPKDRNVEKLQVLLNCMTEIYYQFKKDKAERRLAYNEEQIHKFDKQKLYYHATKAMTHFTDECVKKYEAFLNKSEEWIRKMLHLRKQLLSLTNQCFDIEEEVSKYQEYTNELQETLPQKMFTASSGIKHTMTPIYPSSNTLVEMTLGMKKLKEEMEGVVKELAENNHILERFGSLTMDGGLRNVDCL

Assay [2] deals with IKKε (Homo sapiens (Human), UniProt Q14164). Briefly: TR-FRET kinase assay, IKKε. Type of assay: biochemical. As to conditions: full length recombinant IKKε 0.3 nM, 2x Km ATP, 1 μM peptide, 240 min at 25° C.; geometric mean of minimum four determinations. An excerpt:
Biological Assay for TBK1 and IKKs:

Sequence of IKKε (Q14164 whole entry): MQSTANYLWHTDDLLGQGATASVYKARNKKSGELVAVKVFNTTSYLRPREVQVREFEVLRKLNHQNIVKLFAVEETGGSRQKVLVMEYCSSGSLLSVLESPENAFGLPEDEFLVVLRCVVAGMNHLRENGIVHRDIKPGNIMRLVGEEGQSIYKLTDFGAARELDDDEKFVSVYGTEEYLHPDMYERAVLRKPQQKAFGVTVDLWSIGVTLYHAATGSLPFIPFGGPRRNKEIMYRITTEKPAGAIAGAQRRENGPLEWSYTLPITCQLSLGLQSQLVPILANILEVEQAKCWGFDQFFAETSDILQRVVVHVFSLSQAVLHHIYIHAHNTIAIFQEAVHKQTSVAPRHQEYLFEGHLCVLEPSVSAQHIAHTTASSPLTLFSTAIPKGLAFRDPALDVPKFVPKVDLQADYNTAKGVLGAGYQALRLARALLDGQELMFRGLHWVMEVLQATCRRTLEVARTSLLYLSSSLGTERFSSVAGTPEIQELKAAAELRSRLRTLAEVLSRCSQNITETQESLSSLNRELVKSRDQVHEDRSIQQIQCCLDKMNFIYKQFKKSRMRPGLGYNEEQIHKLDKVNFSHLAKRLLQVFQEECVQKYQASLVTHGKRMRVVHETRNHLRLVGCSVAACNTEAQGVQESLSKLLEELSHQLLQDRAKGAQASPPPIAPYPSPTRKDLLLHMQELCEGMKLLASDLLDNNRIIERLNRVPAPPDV

For the compound `COC(C)(C)c1ccc(-c2cc3c(-c4cc(C#N)c(OC5CCOCC5)cn4)ccnc3[nH]2)cc1` [Example 169, 2-(2-(4-(2-Methoxypropan-2-yl)phenyl)-1H-pyrrolo[2,3-b]pyridin-4-yl)-5-((tetrahydro-2H-pyran-4-yl)oxy)isonicotinonitrile], the figures for the pIC50 in assay [1] and in assay [2] were 8.32 and 7.88, respectively.
For `N#Cc1cc(-c2ccnc3[nH]c(C4=CCN(C5COC5)C4)cc23)ccc1OC1CCOCC1` [Example 178, 5-(2-(1-(oxetan-3-yl)-2,5-dihydro-1H-pyrrol-3-yl)-1H-pyrrolo[2,3-b]pyridin-4-yl)-2-((tetrahydro-2H-pyran-4-yl)oxy)benzonitrile] the same measures were 8.11 and 7.74.
`CC(C)(O)c1ccc(-c2cc3c(-c4ccc(CN5CCOCC5)c(C#N)c4)ncnc3[nH]2)cc1` [Example 111, 5-(6-(4-(2-hydroxypropan-2-yl)phenyl)-7H-pyrrolo[2,3-d]pyrimidin-4-yl)-2-(morpholinomethyl)benzonitrile]: the negative-log IC50 (pIC50) (as a rule, the IC50 on a negative log10 scale, so that one unit is a factor of ten) in assay [1] was 7.43; in assay [2], 6.55.
The corresponding values for `N#Cc1cc(-c2cc3c(-c4ccc(N5CC(O)C5)c(C#N)c4)ncnc3[nH]2)ccc1N1CC(O)C1` [Example 230, 5,5′-(7H-pyrrolo[2,3-d]pyrimidine-4,6-diyl)bis(2-(3-hydroxyazetidin-1-yl)benzonitrile)] are 7.87 and 6.49.
As to `N#Cc1cc(-c2ccnc3[nH]c(-c4ccc(N5CCOCC5)cc4)cc23)ccc1CN1CCOCC1` [Example 70, 2-(morpholinomethyl)-5-(2-(4-morpholinophenyl)-1H-pyrrolo[2,3-b]pyridin-4-yl)benzonitrile], the pIC50 was 7.98 in assay [1] and 6.88 in assay [2].
Turning to `Cn1cc(-c2cc3c(-c4ccc(OC5CCOCC5)c(C#N)c4)ncnc3[nH]2)cn1` [Example 104, 5-(6-(1-methyl-1H-pyrazol-4-yl)-7H-pyrrolo[2,3-d]pyrimidin-4-yl)-2-((tetrahydro-2H-pyran-4-yl)oxy)benzonitrile], the negative logarithm of the IC50 (pIC50) in assay [1] was 8.42; in assay [2] it was 8.09.
For `COc1cc(C#N)cc(-c2ccnc3[nH]c(-c4ccc(N5CCOCC5)cc4)cc23)c1` [Example 33, 3-methoxy-5-(2-(4-morpholinophenyl)-1H-pyrrolo[2,3-b]pyridin-4-yl)benzonitrile] the same measures were 7.84 and less than 6.00.
For `N#Cc1cc(-c2ccnc3[nH]c(C4=CCNCC4)cc23)ccc1OC1CCOCC1` [Example 5, 2-((tetrahydro-2H-pyran-4-yl)oxy)-5-(2-(1,2,3,6-tetrahydropyridin-4-yl)-1H-pyrrolo[2,3-b]pyridin-4-yl)benzonitrile] the same measures were 7.53 and 7.40.
On to `N#Cc1cc(-c2ncnc3[nH]c(-c4ccc(N5CCOCC5)cc4)nc23)ccc1OC1CCOCC1` [Example 201, 5-(8-(4-morpholinophenyl)-9H-purin-6-yl)-2-((tetrahydro-2H-pyran-4-yl)oxy)benzonitrile], for which the pIC50 is 8.52 in assay [1] and 7.70 in assay [2].
For `CC(C)(O)c1ccc(-c2cc3c(-c4ccc(O[C@@H]5CCNC5)c(C#N)c4)ccnc3[nH]2)cc1` [Example 151, (R)-5-(2-(4-(2-hydroxypropan-2-yl)phenyl)-1H-pyrrolo[2,3-b]pyridin-4-yl)-2-(pyrrolidin-3-yloxy)benzonitrile] the same measures were 7.37 and 6.92.
For `N#Cc1cc(-c2ncnc3[nH]c(Nc4cccc(N5CCOCC5)c4)nc23)ccc1OC1CCOCC1` [Example 194, 5-(8-((3-morpholinophenyl)amino)-9H-purin-6-yl)-2-((tetrahydro-2H-pyran-4-yl)oxy)benzonitrile] the same measures were 6.53 and 6.25.
As for `COc1cc(-c2cc3c(-c4ccc(OC5CCOCC5)c(C#N)c4)ncnc3[nH]2)ccc1N1CCN(C(=O)CO)CC1` [Example 134, 5-(6-(4-(4-(2-hydroxyacetyl)piperazin-1-yl)-3-methoxyphenyl)-7H-pyrrolo[2,3-d]pyrimidin-4-yl)-2-((tetrahydro-2H-pyran-4-yl)oxy)benzonitrile], the figures for the pIC50 in assay [1] and in assay [2] were 8.96 and 8.22, respectively.
For `N#Cc1cc(-c2ncnc3[nH]c(-c4ccc(N5CCOCC5)c(F)c4)nc23)ccc1OC1CCN(C(=O)CO)CC1` [Example 241, 5-(8-(3-fluoro-4-morpholinophenyl)-9H-purin-6-yl)-2-((1-(2-hydroxyacetyl)piperidin-4-yl)oxy)benzonitrile], the pIC50 in assay [1] was 8.89; in assay [2] it was 8.58.
As to `N#Cc1cc(-c2ncnc3[nH]c(-c4cccc(N5CCOCC5)c4)cc23)ccc1OC1CCOCC1` [Example 103, 5-(6-(3-morpholinophenyl)-7H-pyrrolo[2,3-d]pyrimidin-4-yl)-2-((tetrahydro-2H-pyran-4-yl)oxy)benzonitrile], the values for the pIC50 in assay [1] and in assay [2] were 8.58 and 7.72, respectively.
For `COc1cc(N2CCOCC2)ccc1-c1cc2c(-c3ccc(OC4CCOCC4)c(C#N)c3)ncnc2[nH]1` [Example 137, 5-(6-(2-methoxy-4-morpholinophenyl)-7H-pyrrolo[2,3-d]pyrimidin-4-yl)-2-((tetrahydro-2H-pyran-4-yl)oxy)benzonitrile] the same measures were 8.01 and 7.32.
The corresponding values for `N#Cc1cc(-c2ccnc3[nH]c(-c4ccc(N5CCOCC5)nc4)cc23)ccc1OC1CCOCC1` [Example 81, 5-(2-(6-morpholinopyridin-3-yl)-1H-pyrrolo[2,3-b]pyridin-4-yl)-2-((tetrahydro-2H-pyran-4-yl)oxy)benzonitrile] are 8.39 and 8.00.
Take `N#Cc1cc(-c2ncnc3[nH]c(-c4ccc5c(c4)NCCO5)cc23)ccc1OC1CCOCC1` [Example 191, 5-(6-(3,4-dihydro-2H-benzo[b][1,4]oxazin-6-yl)-7H-pyrrolo[2,3-d]pyrimidin-4-yl)-2-((tetrahydro-2H-pyran-4-yl)oxy)benzonitrile]: the pIC50 in assay [1] is 8.29; in assay [2] it was 7.90.
As for `N#Cc1cc(-c2ncnc3[nH]c(-c4cccc(N5CCOCC5)c4)cc23)ccc1N1CC(O)C1` [Example 110, 2-(3-hydroxyazetidin-1-yl)-5-(6-(3-morpholinophenyl)-7H-pyrrolo[2,3-d]pyrimidin-4-yl)benzonitrile], the pIC50 in assay [1] was 7.90; in assay [2], 7.24.
Take `N#Cc1cc(-c2ccnc3[nH]c(-c4ccc(N5CCOCC5)cc4)cc23)ncc1OC1CCOCC1` [Example 26, 2-(2-(4-morpholinophenyl)-1H-pyrrolo[2,3-b]pyridin-4-yl)-5-((tetrahydro-2H-pyran-4-yl)oxy)isonicotinonitrile]: the results for the pIC50 in assay [1] and in assay [2] were 8.46 and 8.16, respectively.
For `N#Cc1cc(-c2ccnc3[nH]c(-c4ccc(N5CCOCC5)cc4)cc23)ccc1N` [Example 28, 2-amino-5-(2-(4-morpholinophenyl)-1H-pyrrolo[2,3-b]pyridin-4-yl)benzonitrile] the same measures were 7.93 and 6.93.
The corresponding values for `CN1CCN(C(=O)c2ccc(-c3cc4c(-c5ccc(OC6CCN(C(=O)CO)CC6)c(C#N)c5)ncnc4[nH]3)cc2)CC1` [Example 161, 2-((1-(2-Hydroxyacetyl)piperidin-4-yl)oxy)-5-(6-(4-(4-methylpiperazine-1-carbonyl)phenyl)-7H-pyrrolo[2,3-d]pyrimidin-4-yl)benzonitrile] are 8.81 and 8.95.
For `N#Cc1cc(-c2ccnc3[nH]c(-c4ccc(C(=O)C(F)(F)F)cc4)cc23)ccc1OC1CCOCC1` [Example 237, 2-((tetrahydro-2H-pyran-4-yl)oxy)-5-(2-(4-(2,2,2-trifluoroacetyl)phenyl)-1H-pyrrolo[2,3-b]pyridin-4-yl)benzonitrile] the same measures were 7.94 and 7.53.
As to `N#Cc1cc(-c2ccnc3[nH]c(-c4ccc(N5CCOCC5)cc4)cc23)ccc1OCC1CC1` [Example 80, 2-(cyclopropylmethoxy)-5-(2-(4-morpholinophenyl)-1H-pyrrolo[2,3-b]pyridin-4-yl)benzonitrile], the pIC50 in assay [1] is 7.77; in assay [2], less than 6.00.
For `COc1cc(-c2cc3c(-c4ccc(OC5CCN(C(=O)CO)CC5(F)F)c(C#N)c4)ncnc3[nH]2)ccc1N1CCN(C2COC2)CC1` (centres unmarked) [Example 141, 2-((3,3-difluoro-1-(2-hydroxyacetyl)piperidin-4-yl)oxy)-5-(6-(3-methoxy-4-(4-(oxetan-3-yl)piperazin-1-yl)phenyl)-7H-pyrrolo[2,3-d]pyrimidin-4-yl)benzonitrile] the same measures were 9.12 and 9.16.
The corresponding values for `CS(=O)(=O)c1ccc(-c2ccnc3[nH]c(-c4ccc(N5CCOCC5)cc4)cc23)cc1C#N` [Example 192, 2-(methylsulfonyl)-5-(2-(4-morpholinophenyl)-1H-pyrrolo[2,3-b]pyridin-4-yl)benzonitrile] are 6.56 and 6.00.
The corresponding values for `N#Cc1cc(-c2ccnc3[nH]c(-c4ccc(N5CCOCC5)cc4)cc23)ccc1OC1CCCOC1` (centres unmarked) [Example 239, 5-(2-(4-morpholinophenyl)-1H-pyrrolo[2,3-b]pyridin-4-yl)-2-((tetrahydro-2H-pyran-3-yl)oxy)benzonitrile] are 7.35 and 6.71.
Regarding `N#Cc1cc(-c2ccnc3[nH]c(-c4ccc(N5CCOCC5)cc4)cc23)ccc1OC1CCOCC1` [Example 48, 5-(2-(4-morpholinophenyl)-1H-pyrrolo[2,3-b]pyridin-4-yl)-2-((tetrahydro-2H-pyran-4-yl)oxy)benzonitrile], the negative logarithm of the IC50 (pIC50) was 8.49 in assay [1] and 7.94 in assay [2].
With `CN1CCN(c2ccc(-c3nc4c(-c5ccc(OC6CCN(C(=O)CO)CC6)c(C#N)c5)ncnc4[nH]3)cc2)CC1` [Example 251, 2-((1-(2-hydroxyacetyl)piperidin-4-yl)oxy)-5-(8-(4-(4-methylpiperazin-1-yl)phenyl)-9H-purin-6-yl)benzonitrile], the pIC50 is 9.05 in assay [1] and 9.09 in assay [2].
